Patent US20050042213A1, “Methods and pharmaceutical compositions for modulating heparanase activation and uses thereof” (InSight Biopharmaceuticals Ltd., priority 2003, published 2005)

Molecular target: T1, pro-heparanase transiently expressed in 293 cells (Homo sapiens, UniProt Q9Y251, K307R)
T1 sequence (Q9Y251 36-543 K307R): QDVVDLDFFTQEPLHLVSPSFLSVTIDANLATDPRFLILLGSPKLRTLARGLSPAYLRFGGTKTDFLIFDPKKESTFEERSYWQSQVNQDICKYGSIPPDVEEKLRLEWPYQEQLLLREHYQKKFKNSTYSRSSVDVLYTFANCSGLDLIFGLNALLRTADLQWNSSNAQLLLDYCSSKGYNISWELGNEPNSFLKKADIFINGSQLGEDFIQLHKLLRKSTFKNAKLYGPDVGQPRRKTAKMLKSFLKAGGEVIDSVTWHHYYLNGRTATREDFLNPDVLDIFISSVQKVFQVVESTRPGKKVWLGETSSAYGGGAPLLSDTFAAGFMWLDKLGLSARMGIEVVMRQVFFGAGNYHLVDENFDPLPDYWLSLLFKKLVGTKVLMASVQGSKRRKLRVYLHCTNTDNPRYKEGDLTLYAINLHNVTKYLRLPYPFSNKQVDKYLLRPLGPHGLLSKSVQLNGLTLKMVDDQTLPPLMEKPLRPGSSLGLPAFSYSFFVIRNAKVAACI
Assay: Pro-heparanase processing in transiently transfected 293 cells (Western blot)
Assay type: cell-based
Procedure: Western blot analysis—Western blot analysis was performed using rabbit anti-heparanase polyclonal antibodies as described in U.S. Pat. Nos. 6,177,545; 6,531,129; and 6,562,950.
Transient transfections—293 cells (200,000) were plated onto a 6 well tissue culture plate. 24 hrs later, the cells were transfected with 1 μg pSI (Promega) hpa plasmid (U.S. Pat. No. 6,475,763) in 3 μl Fugene reagent that was pre-incubated for 15 min in 100 μl medium without serum. Cells were treated with inhibitors 4 and 17 hrs following transfection.

pro-heparanase expression: did not affect pro-heparanase expression
Structure (SMILES): O=C(O)CCCN1C(=O)C(=Cc2ccc(-c3ccc([N+](=O)[O-])cc3)o2)SC1=S [Compound 5]
pro-heparanase processing: completely inhibited pro-heparanase processing
